{
  "source": "the kinase profiling compilation of Christmann-Franck et al. (2016)",
  "assay_in_all_cases": "radiometric filter-binding kinase assay, Kinaseprofiler",
  "key": {"[1]": {"target": "RET (human) (UniProt P07949)", "conditions": "ATP 70 µM"}, "[2]": {"target": "PRKCE (human) (UniProt Q02156)", "conditions": "ATP 45 µM"}, "[3]": {"target": "RPS6KA3 KD1 KD2 (human) (UniProt P51812)", "conditions": "ATP 10 µM"}, "[4]": {"target": "MAPK10 (human) (UniProt P53779)", "sequence (P53779 whole entry, looked up)": "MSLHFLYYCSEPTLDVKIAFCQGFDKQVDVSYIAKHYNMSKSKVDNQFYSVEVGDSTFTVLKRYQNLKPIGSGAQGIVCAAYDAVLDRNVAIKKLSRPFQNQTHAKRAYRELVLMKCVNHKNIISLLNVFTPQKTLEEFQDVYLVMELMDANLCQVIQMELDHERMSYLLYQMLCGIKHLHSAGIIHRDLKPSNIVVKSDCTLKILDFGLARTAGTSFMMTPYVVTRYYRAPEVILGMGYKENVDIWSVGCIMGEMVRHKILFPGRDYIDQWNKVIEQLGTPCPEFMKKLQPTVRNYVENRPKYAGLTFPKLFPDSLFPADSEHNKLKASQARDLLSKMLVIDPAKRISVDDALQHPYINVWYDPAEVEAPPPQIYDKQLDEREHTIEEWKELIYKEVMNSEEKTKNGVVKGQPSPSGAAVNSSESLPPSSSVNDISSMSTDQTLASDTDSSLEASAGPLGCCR", "conditions": "ATP 10 µM"}, "[5]": {"target": "CAMK4 (human) (UniProt Q16566)", "conditions": "ATP 10 µM"}, "[6]": {"target": "SRPK2 (human) (UniProt P78362)", "conditions": "ATP 10 µM"}, "[7]": {"target": "ULK3 (human) (UniProt Q6PHR2)", "conditions": "ATP 10 µM"}, "[8]": {"target": "HCK (human) (UniProt P08631)", "sequence (P08631 whole entry, looked up)": "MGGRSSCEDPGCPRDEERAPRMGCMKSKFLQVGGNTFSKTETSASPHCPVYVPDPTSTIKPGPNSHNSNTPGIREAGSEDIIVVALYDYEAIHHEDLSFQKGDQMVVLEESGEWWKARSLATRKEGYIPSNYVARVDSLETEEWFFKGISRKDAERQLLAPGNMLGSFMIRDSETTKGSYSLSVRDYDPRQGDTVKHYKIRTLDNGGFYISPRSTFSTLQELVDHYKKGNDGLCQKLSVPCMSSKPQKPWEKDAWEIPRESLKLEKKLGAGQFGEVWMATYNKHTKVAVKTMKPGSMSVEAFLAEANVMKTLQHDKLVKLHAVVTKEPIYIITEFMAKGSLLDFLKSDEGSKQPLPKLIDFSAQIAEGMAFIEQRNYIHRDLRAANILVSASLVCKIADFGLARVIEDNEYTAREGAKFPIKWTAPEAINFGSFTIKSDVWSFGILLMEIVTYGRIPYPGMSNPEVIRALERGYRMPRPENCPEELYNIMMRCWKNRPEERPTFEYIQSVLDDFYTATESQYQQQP"}, "[9]": {"target": "DCLK2 (human) (UniProt Q8N568)", "sequence (Q8N568 whole entry, looked up)": "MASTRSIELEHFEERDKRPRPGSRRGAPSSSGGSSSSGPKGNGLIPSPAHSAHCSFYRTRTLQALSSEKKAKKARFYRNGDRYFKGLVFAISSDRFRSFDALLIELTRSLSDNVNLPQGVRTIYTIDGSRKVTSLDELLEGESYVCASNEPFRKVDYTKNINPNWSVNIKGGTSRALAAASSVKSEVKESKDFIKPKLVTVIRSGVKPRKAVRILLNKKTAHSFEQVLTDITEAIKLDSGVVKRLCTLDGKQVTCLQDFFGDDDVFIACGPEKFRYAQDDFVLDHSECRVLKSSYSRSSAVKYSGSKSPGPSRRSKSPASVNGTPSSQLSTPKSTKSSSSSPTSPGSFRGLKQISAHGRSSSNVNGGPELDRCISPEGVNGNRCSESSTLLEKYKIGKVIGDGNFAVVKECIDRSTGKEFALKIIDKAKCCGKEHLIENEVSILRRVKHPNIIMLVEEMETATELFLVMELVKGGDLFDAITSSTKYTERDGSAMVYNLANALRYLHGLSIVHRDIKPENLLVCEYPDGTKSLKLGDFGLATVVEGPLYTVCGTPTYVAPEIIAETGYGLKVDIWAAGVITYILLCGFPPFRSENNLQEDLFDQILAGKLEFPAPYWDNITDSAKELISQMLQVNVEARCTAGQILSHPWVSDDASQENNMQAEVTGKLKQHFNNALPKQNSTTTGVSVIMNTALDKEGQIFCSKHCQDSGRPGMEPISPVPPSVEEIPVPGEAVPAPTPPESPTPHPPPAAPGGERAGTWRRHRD", "conditions": "ATP 90 µM"}, "[10]": {"target": "CDK9 CCNT1 (human) (UniProt P50750+O60563)", "conditions": "ATP 45 µM"}, "[11]": {"target": "CDK2 CCNE1 (human) (UniProt P24941+P24864)", "conditions": "ATP 120 µM"}, "[12]": {"target": "ACVR1B (human) (UniProt P36896)", "sequence (P36896 whole entry, looked up)": "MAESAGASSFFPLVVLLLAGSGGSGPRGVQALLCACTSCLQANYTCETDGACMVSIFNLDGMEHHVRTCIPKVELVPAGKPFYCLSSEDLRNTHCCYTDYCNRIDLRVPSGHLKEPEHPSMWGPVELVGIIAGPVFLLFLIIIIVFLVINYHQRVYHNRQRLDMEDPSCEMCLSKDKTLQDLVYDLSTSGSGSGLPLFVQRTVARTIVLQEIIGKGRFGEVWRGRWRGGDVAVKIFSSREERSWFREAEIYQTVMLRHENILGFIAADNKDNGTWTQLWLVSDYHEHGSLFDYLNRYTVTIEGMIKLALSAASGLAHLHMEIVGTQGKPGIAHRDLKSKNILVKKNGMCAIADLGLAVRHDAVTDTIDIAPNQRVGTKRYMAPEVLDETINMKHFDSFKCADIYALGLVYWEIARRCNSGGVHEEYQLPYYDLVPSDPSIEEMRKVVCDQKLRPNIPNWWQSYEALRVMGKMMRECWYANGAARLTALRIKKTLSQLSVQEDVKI", "conditions": "ATP 10 µM"}, "[13]": {"target": "PAK3 (human) (UniProt O75914)", "conditions": "ATP 120 µM"}, "[14]": {"target": "RPS6KA1 KD1 KD2 (human) (UniProt Q15418)", "conditions": "ATP 45 µM"}, "[15]": {"target": "PTK2B (human) (UniProt Q14289)", "conditions": "ATP 90 µM"}, "[16]": {"target": "IKBKB (human) (UniProt O14920)", "conditions": "ATP 10 µM"}, "[17]": {"target": "PASK (human) (UniProt Q96RG2)", "conditions": "ATP 15 µM"}, "[18]": {"target": "NEK6 (human) (UniProt Q9HC98)", "sequence (Q9HC98 whole entry, looked up)": "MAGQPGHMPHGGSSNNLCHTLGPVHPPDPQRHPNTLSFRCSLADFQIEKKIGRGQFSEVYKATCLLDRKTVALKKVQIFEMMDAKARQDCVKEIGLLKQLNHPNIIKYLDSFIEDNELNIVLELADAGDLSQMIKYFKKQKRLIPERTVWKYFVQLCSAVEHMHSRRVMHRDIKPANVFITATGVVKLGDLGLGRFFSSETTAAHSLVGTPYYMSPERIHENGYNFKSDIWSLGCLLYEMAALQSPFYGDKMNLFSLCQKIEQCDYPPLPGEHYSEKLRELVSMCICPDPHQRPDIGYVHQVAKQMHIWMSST", "conditions": "ATP 45 µM"}, "[19]": {"target": "BRSK1 (human) (UniProt Q8TDC3)", "conditions": "ATP 200 µM"}, "[20]": {"target": "KDR (human) (UniProt P35968)", "conditions": "ATP 90 µM"}, "[21]": {"target": "CHUK (human) (UniProt O15111)", "conditions": "ATP 10 µM"}, "[22]": {"target": "HIPK1 (human) (UniProt Q86Z02)", "conditions": "ATP 45 µM"}, "[23]": {"target": "CDC42BPB (human) (UniProt Q9Y5S2)", "conditions": "ATP 10 µM"}, "[24]": {"target": "EPHB4 (human) (UniProt P54760)", "sequence (P54760 whole entry, looked up)": "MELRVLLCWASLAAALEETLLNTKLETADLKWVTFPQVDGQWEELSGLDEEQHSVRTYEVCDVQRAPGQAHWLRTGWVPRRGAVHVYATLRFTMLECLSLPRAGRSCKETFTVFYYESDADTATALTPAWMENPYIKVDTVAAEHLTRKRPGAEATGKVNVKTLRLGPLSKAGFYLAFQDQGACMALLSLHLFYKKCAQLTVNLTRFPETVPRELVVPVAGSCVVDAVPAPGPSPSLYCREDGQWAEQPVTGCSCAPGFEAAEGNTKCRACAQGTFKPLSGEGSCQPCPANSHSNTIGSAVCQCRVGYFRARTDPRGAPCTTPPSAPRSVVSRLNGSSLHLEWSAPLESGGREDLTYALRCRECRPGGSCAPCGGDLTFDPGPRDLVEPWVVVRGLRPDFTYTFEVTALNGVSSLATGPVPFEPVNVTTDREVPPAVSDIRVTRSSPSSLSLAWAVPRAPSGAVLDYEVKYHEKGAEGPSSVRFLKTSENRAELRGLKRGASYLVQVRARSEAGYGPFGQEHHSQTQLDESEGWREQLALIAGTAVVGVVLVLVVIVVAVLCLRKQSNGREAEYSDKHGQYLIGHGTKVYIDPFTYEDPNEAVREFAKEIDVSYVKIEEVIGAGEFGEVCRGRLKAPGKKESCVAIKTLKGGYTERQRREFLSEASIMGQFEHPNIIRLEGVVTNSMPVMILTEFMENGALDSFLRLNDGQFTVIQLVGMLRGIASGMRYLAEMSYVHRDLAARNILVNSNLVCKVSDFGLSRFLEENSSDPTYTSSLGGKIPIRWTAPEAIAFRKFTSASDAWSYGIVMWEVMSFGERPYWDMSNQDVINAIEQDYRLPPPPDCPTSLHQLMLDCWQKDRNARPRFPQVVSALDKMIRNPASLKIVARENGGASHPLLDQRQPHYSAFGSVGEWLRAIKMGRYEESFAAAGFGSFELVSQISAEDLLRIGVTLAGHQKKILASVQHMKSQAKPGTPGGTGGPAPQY", "conditions": "ATP 10 µM"}, "[25]": {"target": "MINK1 (human) (UniProt Q8N4C8)", "conditions": "ATP 185 µM"}, "[26]": {"target": "MARK2 (human) (UniProt Q7KZI7)", "conditions": "ATP 15 µM"}, "[27]": {"target": "LYN (human) (UniProt P07948)", "sequence (P07948 whole entry, looked up)": "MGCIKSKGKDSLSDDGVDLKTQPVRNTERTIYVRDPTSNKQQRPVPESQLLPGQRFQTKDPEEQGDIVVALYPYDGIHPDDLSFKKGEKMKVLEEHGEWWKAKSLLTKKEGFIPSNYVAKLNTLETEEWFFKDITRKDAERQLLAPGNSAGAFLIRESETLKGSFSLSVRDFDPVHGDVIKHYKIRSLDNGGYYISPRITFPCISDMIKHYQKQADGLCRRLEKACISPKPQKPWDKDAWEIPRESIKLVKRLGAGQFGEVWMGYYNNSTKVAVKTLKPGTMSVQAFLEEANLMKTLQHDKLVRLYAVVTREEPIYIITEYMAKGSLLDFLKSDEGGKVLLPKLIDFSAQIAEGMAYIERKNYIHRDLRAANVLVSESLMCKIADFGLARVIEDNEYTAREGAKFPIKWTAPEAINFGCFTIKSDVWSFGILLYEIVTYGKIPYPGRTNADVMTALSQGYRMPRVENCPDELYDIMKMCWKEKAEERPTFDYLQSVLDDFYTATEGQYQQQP", "conditions": "ATP 70 µM"}, "[28]": {"target": "FGFR3 (human) (UniProt P22607)", "sequence (P22607 whole entry, looked up)": "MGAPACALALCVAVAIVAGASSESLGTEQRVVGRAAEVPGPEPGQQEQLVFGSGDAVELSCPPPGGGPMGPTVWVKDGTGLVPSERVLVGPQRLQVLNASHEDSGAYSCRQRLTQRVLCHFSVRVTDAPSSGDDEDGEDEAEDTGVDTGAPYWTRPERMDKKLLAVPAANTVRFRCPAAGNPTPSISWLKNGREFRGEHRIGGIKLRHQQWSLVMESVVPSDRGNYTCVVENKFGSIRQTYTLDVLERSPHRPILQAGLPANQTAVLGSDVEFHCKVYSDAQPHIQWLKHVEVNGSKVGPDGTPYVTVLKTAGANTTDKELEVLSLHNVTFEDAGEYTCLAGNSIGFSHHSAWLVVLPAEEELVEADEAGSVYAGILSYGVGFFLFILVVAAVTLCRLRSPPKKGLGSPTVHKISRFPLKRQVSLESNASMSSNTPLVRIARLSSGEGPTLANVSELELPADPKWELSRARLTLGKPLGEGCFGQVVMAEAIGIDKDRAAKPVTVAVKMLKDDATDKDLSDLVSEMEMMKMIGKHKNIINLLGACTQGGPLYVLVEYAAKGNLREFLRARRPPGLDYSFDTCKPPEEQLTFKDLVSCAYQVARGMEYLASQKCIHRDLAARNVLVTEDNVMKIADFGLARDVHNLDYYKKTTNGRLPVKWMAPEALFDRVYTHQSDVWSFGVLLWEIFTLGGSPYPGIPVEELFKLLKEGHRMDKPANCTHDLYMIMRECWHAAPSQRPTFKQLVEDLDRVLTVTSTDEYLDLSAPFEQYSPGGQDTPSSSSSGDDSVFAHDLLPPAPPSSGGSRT", "conditions": "ATP 15 µM"}, "[29]": {"target": "SRPK1 (human) (UniProt Q96SB4)", "conditions": "ATP 10 µM"}, "[30]": {"target": "PTK2 (human) (UniProt Q05397)", "conditions": "ATP 70 µM"}, "[31]": {"target": "HIPK3 (human) (UniProt Q9H422)", "conditions": "ATP 15 µM"}, "[32]": {"test_system": "TAOK3 (human), Q9H2K8 [N47S]", "conditions": "ATP 15 µM"}},
  "data": [
    {"molecule": "O=C1c2ccccc2-c2n[nH]c3cccc1c23", "values": [
      {"measurement": "residual activity", "setting": "[1]; compound 1.0 µM", "value": 43, "unit": "%"},
      {"measurement": "residual activity", "setting": "[1]; compound 10.0 µM", "value": 11, "unit": "%"},
      {"measurement": "residual activity", "setting": "[2]; compound 1.0 µM", "value": 101, "unit": "%"},
      {"measurement": "residual activity", "setting": "[2]; compound 10.0 µM", "value": 84, "unit": "%"},
      {"measurement": "residual activity", "setting": "[3]; compound 1.0 µM", "value": 54, "unit": "%"},
      {"measurement": "residual activity", "setting": "[3]; compound 10.0 µM", "value": 32, "unit": "%"},
      {"measurement": "residual activity", "setting": "[4]; compound 1.0 µM", "value": 5, "unit": "%"},
      {"measurement": "residual activity", "setting": "[4]; compound 10.0 µM", "value": -6, "unit": "%"},
      {"measurement": "residual activity", "setting": "[5]; compound 1.0 µM", "value": 73, "unit": "%"},
      {"measurement": "residual activity", "setting": "[5]; compound 10.0 µM", "value": 24, "unit": "%"},
      {"measurement": "residual activity", "setting": "[6]; compound 1.0 µM", "value": 97, "unit": "%"},
      {"measurement": "residual activity", "setting": "[6]; compound 10.0 µM", "value": 57, "unit": "%"},
      {"measurement": "residual activity", "setting": "[7]; compound 1.0 µM", "value": 73, "unit": "%"},
      {"measurement": "residual activity", "setting": "[7]; compound 10.0 µM", "value": 43, "unit": "%"},
      {"measurement": "residual activity", "setting": "[8]; compound 1.0 µM, ATP 45 µM", "value": 80, "unit": "%"},
      {"measurement": "residual activity", "setting": "[8]; compound 1.0 µM, ATP 70 µM", "value": 57, "unit": "%"},
      {"measurement": "residual activity", "setting": "[8]; compound 10.0 µM, ATP 45 µM", "value": 83, "unit": "%"},
      {"measurement": "residual activity", "setting": "[8]; compound 10.0 µM, ATP 70 µM", "value": 27, "unit": "%"},
      {"measurement": "residual activity", "setting": "[9]; compound 1.0 µM", "value": 116, "unit": "%"},
      {"measurement": "residual activity", "setting": "[9]; compound 10.0 µM", "value": 51, "unit": "%"},
      {"measurement": "residual activity", "setting": "[10]; compound 1.0 µM", "value": 96, "unit": "%"},
      {"measurement": "residual activity", "setting": "[10]; compound 10.0 µM", "value": 55, "unit": "%"},
      {"measurement": "residual activity", "setting": "[11]; compound 1.0 µM", "value": 8, "unit": "%"},
      {"measurement": "residual activity", "setting": "[11]; compound 10.0 µM", "value": 3, "unit": "%"},
      {"measurement": "residual activity", "setting": "[12]; compound 1.0 µM", "value": 86, "unit": "%"},
      {"measurement": "residual activity", "setting": "[12]; compound 10.0 µM", "value": 84, "unit": "%"},
      {"measurement": "residual activity", "setting": "[13]; compound 1.0 µM", "value": 85, "unit": "%"},
      {"measurement": "residual activity", "setting": "[13]; compound 10.0 µM", "value": 96, "unit": "%"},
      {"measurement": "residual activity", "setting": "[14]; compound 1.0 µM", "value": 86, "unit": "%"},
      {"measurement": "residual activity", "setting": "[14]; compound 10.0 µM", "value": 64, "unit": "%"},
      {"measurement": "residual activity", "setting": "[15]; compound 1.0 µM", "value": 68, "unit": "%"},
      {"measurement": "residual activity", "setting": "[15]; compound 10.0 µM", "value": 23, "unit": "%"},
      {"measurement": "residual activity", "setting": "[16]; compound 1.0 µM", "value": 78, "unit": "%"},
      {"measurement": "residual activity", "setting": "[16]; compound 10.0 µM", "value": 43, "unit": "%"},
      {"measurement": "residual activity", "setting": "[17]; compound 1.0 µM", "value": 125, "unit": "%"},
      {"measurement": "residual activity", "setting": "[17]; compound 10.0 µM", "value": 81, "unit": "%"},
      {"measurement": "residual activity", "setting": "[18]; compound 1.0 µM", "value": 107, "unit": "%"},
      {"measurement": "residual activity", "setting": "[18]; compound 10.0 µM", "value": 101, "unit": "%"},
      {"measurement": "residual activity", "setting": "[19]; compound 1.0 µM", "value": 38, "unit": "%"},
      {"measurement": "residual activity", "setting": "[19]; compound 10.0 µM", "value": 29, "unit": "%"},
      {"measurement": "residual activity", "setting": "[20]; compound 1.0 µM", "value": 17, "unit": "%"},
      {"measurement": "residual activity", "setting": "[20]; compound 10.0 µM", "value": 3, "unit": "%"},
      {"measurement": "residual activity", "setting": "[21]; compound 1.0 µM", "value": 57, "unit": "%"},
      {"measurement": "residual activity", "setting": "[21]; compound 10.0 µM", "value": 21, "unit": "%"},
      {"measurement": "residual activity", "setting": "[22]; compound 1.0 µM", "value": 93, "unit": "%"},
      {"measurement": "residual activity", "setting": "[22]; compound 10.0 µM", "value": 62, "unit": "%"},
      {"measurement": "residual activity", "setting": "[23]; compound 1.0 µM", "value": 90, "unit": "%"},
      {"measurement": "residual activity", "setting": "[23]; compound 10.0 µM", "value": 95, "unit": "%"},
      {"measurement": "residual activity", "setting": "[24]; compound 1.0 µM", "value": 89, "unit": "%"},
      {"measurement": "residual activity", "setting": "[24]; compound 10.0 µM", "value": 55, "unit": "%"},
      {"measurement": "residual activity", "setting": "[25]; compound 1.0 µM", "value": 86, "unit": "%"},
      {"measurement": "residual activity", "setting": "[25]; compound 10.0 µM", "value": 50, "unit": "%"},
      {"measurement": "residual activity", "setting": "[26]; compound 1.0 µM", "value": 55, "unit": "%"},
      {"measurement": "residual activity", "setting": "[26]; compound 10.0 µM", "value": 12, "unit": "%"},
      {"measurement": "residual activity", "setting": "[27]; compound 1.0 µM", "value": 70, "unit": "%"},
      {"measurement": "residual activity", "setting": "[27]; compound 10.0 µM", "value": 30, "unit": "%"},
      {"measurement": "residual activity", "setting": "[28]; compound 1.0 µM", "value": 72, "unit": "%"},
      {"measurement": "residual activity", "setting": "[28]; compound 10.0 µM", "value": 40, "unit": "%"},
      {"measurement": "residual activity", "setting": "[29]; compound 1.0 µM", "value": 98, "unit": "%"},
      {"measurement": "residual activity", "setting": "[29]; compound 10.0 µM", "value": 87, "unit": "%"},
      {"measurement": "residual activity", "setting": "[30]; compound 1.0 µM", "value": 52, "unit": "%"},
      {"measurement": "residual activity", "setting": "[30]; compound 10.0 µM", "value": 9, "unit": "%"},
      {"measurement": "residual activity", "setting": "[31]; compound 1.0 µM", "value": 73, "unit": "%"},
      {"measurement": "residual activity", "setting": "[31]; compound 10.0 µM", "value": 19, "unit": "%"},
      {"measurement": "residual activity", "setting": "[32]; compound 1.0 µM", "value": 69, "unit": "%"},
      {"measurement": "residual activity", "setting": "[32]; compound 10.0 µM", "value": 27, "unit": "%"}
    ]}
  ]
}
